Assay results as given in the NIST ThermoML archive (doi:10.1021/je700015t).
± gives the expanded uncertainty stated by the source.

Settings: 101.33 kPa, Liquid

SMILES	mass density (253.15 K)	mass density (263.15 K)	mass density (273.15 K)	mass density (283.15 K)	mass density (298.15 K)	mass density (323.15 K)	mass density (293.15 K)	mass density (343.15 K)	mass density (363.15 K)	mass density (393.15 K)	mass density (423.15 K)	mass density (243.15 K)	mass density (383.15 K)	mass density (403.15 K)
CCCCBr [1-bromobutane]	1326.5 ± 1.7 kg/m3	1313.8 ± 1.6 kg/m3	1300.5 ± 1.5 kg/m3	1286.4 ± 1.4 kg/m3	1265.7 ± 1.3 kg/m3	1229.5 ± 1.5 kg/m3								
CCCCCCCCCCCCBr [1-bromododecane]			1056.5 ± 1.3 kg/m3	1048.5 ± 1.2 kg/m3	1035.6 ± 1.2 kg/m3	1014 ± 1.4 kg/m3	1039.8 ± 1.1 kg/m3	996.2 ± 1.5 kg/m3	979 ± 1.7 kg/m3	952.4 ± 1.9 kg/m3	923.7 ± 2.2 kg/m3			
CCCCCCCBr [1-bromoheptane]		1169.6 ± 1.6 kg/m3	1159.2 ± 1.4 kg/m3	1148.7 ± 1.3 kg/m3	1132.9 ± 1.3 kg/m3	1106 ± 1.5 kg/m3		1084.5 ± 1.6 kg/m3		1026.6 ± 2 kg/m3		1191 ± 1.8 kg/m3		
CCCCCCBr [1-bromohexane]	1218 ± 1.7 kg/m3		1195.3 ± 1.5 kg/m3	1183.8 ± 1.3 kg/m3	1166.8 ± 1.3 kg/m3	1137.3 ± 1.5 kg/m3		1113.7 ± 1.6 kg/m3	1090.8 ± 1.8 kg/m3				1066.1 ± 1.9 kg/m3	1040.9 ± 2.1 kg/m3
CCCCCCCCBr [1-bromooctane]	1151.1 ± 1.7 kg/m3	1140.9 ± 1.5 kg/m3	1131.2 ± 1.4 kg/m3	1121.2 ± 1.3 kg/m3	1106 ± 1.3 kg/m3	1080.6 ± 1.5 kg/m3	1111 ± 1.2 kg/m3	1060.5 ± 1.6 kg/m3	1039.5 ± 1.8 kg/m3	1008.4 ± 2 kg/m3				
CCCCCBr [1-bromopentane]	1260.3 ± 2 kg/m3	1249.9 ± 1.9 kg/m3	1239.6 ± 1.8 kg/m3		1208.5 ± 1.6 kg/m3	1177.1 ± 1.8 kg/m3	1214.9 ± 1.6 kg/m3	1151 ± 1.9 kg/m3	1124.7 ± 2 kg/m3	1083.4 ± 2.2 kg/m3			1097.4 ± 2.2 kg/m3	
CCCBr [1-bromopropane]	1415.4 ± 1.8 kg/m3	1400.3 ± 1.7 kg/m3	1385.3 ± 1.6 kg/m3	1369.4 ± 1.5 kg/m3	1344.5 ± 1.4 kg/m3							1431.1 ± 1.9 kg/m3		
